Key:
[1] = target: T1, E. histolytica methionine aminopeptidase 2 (EhMetAP2) (Entamoeba histolytica, UniProt C4LWW4); test: fluorogenic Met-MCA aminopeptidase assay with purified GST-EhMetAP2, double-reciprocal plot; format: biochemical
T1 construct: gene EHI_126880; full-length, N-terminal GST fusion (GST-EhMetAP2) expressed in S. cerevisiae
T1 sequence (C4LWW4 1-413): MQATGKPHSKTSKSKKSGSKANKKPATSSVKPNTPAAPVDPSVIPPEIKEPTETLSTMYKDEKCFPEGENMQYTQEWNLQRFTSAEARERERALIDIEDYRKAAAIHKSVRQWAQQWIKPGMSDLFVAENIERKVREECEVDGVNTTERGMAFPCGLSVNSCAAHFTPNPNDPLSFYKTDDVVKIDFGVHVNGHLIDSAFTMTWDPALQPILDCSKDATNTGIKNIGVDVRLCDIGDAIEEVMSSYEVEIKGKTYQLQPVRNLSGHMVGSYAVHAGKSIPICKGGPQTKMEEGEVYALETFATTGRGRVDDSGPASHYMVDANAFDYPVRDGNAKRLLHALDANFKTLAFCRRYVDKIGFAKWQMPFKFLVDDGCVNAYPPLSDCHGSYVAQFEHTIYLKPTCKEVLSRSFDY

[2] = substrate: CSCC[C@H](N)C(=O)Nc1ccc2c(C)cc(=O)oc2c1; test: fluorometric hydrolysis by purified GST-EhMetAP2; Km by end point assay; format: biochemical, Entamoeba histolytica; settings: Mn2+ / Mg2+ ([…] MnCl2, […] MgCl2 in the assay)

## CO[C@@H]1[C@H](OC(=O)/C=C/C=C/C=C/C=C/C(=O)O)CC[C@]2(CO2)[C@H]1[C@@]1(C)O[C@@H]1CC=C(C)C [compound 1, fumagillin]
[1]
  Ki: 60 ± 33 nM

B1: E. histolytica methionine aminopeptidase 2 (EhMetAP2) (Entamoeba histolytica HM-1:IMSS) (protein)
chain: T1 sequence (C4LWW4 1-413)
notes: full-length, N-terminal GST fusion (GST-EhMetAP2) expressed in S. cerevisiae
[2]
  Km: 770 ± 40 µM

— paper PMC10648944, “Fumagillin inhibits growth of the enteric protozoan parasite Entamoeba histolytica by covalently binding to and selectively inhibiting methionine aminopeptidase 2” (Antimicrobial Agents and Chemotherapy, 2023)
